Data taken from PubChem BioAssay AID248 (DTP/NCI, 2004).
Toxic doses and inconclusive results are not listed. No stated cut-off is given here; in the data, active means T/C of 150% or more; inactive means T/C below 125%. Bridge positions count the residues as written; N and C are the ends. Square brackets hold non-standard residues; d marks the D form. Peptide text beside a SMILES is read from it. I, II: the chains in the order shown. * marks the point of attachment. Quinoxaline2carbonyl = O=C(c1cnc2ccccc2n1)*; NMeV = CN[CH](C(=O)O)C(C)C; NMeC = CN[CH](CS)C(=O)O

System: L1210 leukemia ip in BDF1 mice, survival T/C
Assay: NCI In Vivo Anticancer Drug Screen. Data for tumor model L1210 Leukemia (intraperitoneal) in B6D2F1 (BDF1) mice
Settings: endpoint: mean survival time, higher = longer survival
Summary of the method: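 Tumor cells were implanted, animals were treated, and survival was followed. The result divides the treated measurement by the vehicle-control measurement.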

[1] = dose: 100.0 mg/kg/injection, schedule: Q01DX009 (ip), vehicle: saline with Tween-80
[2] = dose: 100.0 mg/kg/injection, schedule: Q04DX003 (ip), vehicle: saline with Tween-80
[3] = dose: 200.0 mg/kg/injection, schedule: Q01DX009 (ip), vehicle: saline with Tween-80
[4] = dose: 200.0 mg/kg/injection, schedule: Q04DX003 (ip), vehicle: saline with Tween-80
[5] = dose: 400.0 mg/kg/injection, schedule: Q01DX009 (ip), vehicle: saline with Tween-80
[6] = dose: 400.0 mg/kg/injection, schedule: Q04DX003 (ip), vehicle: saline with Tween-80
[7] = dose: 100.0 mg/kg/injection, schedule: Q01DX005 (ip), vehicle: saline
[8] = dose: 200.0 mg/kg/injection, schedule: Q01DX005 (ip), vehicle: saline
[9] = dose: 5.0 mg/kg/injection, schedule: Q01DX001 (ip), vehicle: saline
[10] = dose: 10.0 mg/kg/injection, schedule: Q01DX001 (ip), vehicle: saline
[11] = dose: 20.0 mg/kg/injection, schedule: Q01DX001 (ip), vehicle: saline
[12] = dose: 40.0 mg/kg/injection, schedule: Q01DX001 (ip), vehicle: saline
[13] = dose: 100.0 mg/kg/injection, schedule: Q01DX001 (ip), vehicle: saline
[14] = dose: 200.0 mg/kg/injection, schedule: Q01DX001 (ip), vehicle: saline
[15] = dose: 100.0 mg/kg/injection, schedule: Q01DX009 (ip), vehicle: Klucel (hydroxypropylcellulose) (HPC)
[16] = dose: 100.0 mg/kg/injection, schedule: Q04DX003 (ip), vehicle: Klucel (hydroxypropylcellulose) (HPC)
[17] = dose: 200.0 mg/kg/injection, schedule: Q01DX009 (ip), vehicle: Klucel (hydroxypropylcellulose) (HPC)
[18] = dose: 200.0 mg/kg/injection, schedule: Q04DX003 (ip), vehicle: Klucel (hydroxypropylcellulose) (HPC)
[19] = dose: 400.0 mg/kg/injection, schedule: Q01DX009 (ip), vehicle: Klucel (hydroxypropylcellulose) (HPC)
[20] = dose: 400.0 mg/kg/injection, schedule: Q04DX003 (ip), vehicle: Klucel (hydroxypropylcellulose) (HPC)

Measured: T/C

CCOC(=O)CN1C(=O)Cc2ccccc21
inactive: dose: 75.0 mg/kg/injection, schedule: Q04DX002 (ip), vehicle: saline with Tween-80 101 % of control | dose: 150.0 mg/kg/injection, schedule: Q04DX002 (ip), vehicle: saline with Tween-80 108 % of control | dose: 300.0 mg/kg/injection, schedule: Q04DX002 (ip), vehicle: saline with Tween-80 104 % of control

Cc1sc2ccc(Cl)cc2[n+]1CCC(=O)O
inactive: [1] 101 % of control | [2] 111 % of control | [3] 96 % of control | [4] 108 % of control | [5] 97 % of control | [6] 95 % of control

Cn1ncc2c(NCc3ccccc3Cl)ncnc21
inactive: dose: 25.0 mg/kg/injection, schedule: Q01DX009 (ip), vehicle: saline with Tween-80 102 % of control | dose: 50.0 mg/kg/injection, schedule: Q01DX009 (ip), vehicle: saline with Tween-80 108 % of control | [1] 124 % of control | dose: 200.0 mg/kg/injection, schedule: Q01DX009 (ip), vehicle: other 93 % of control

COc1cc(/C=N/N=C/c2cc(OC)cc(OC)c2)cc(OC)c1
inactive: dose: 100.0 mg/kg/injection, schedule: Q04DX002 (ip), vehicle: Klucel (hydroxypropylcellulose) (HPC) 98 % of control | dose: 200.0 mg/kg/injection, schedule: Q04DX002 (ip), vehicle: Klucel (hydroxypropylcellulose) (HPC) 100 % of control | dose: 400.0 mg/kg/injection, schedule: Q04DX002 (ip), vehicle: Klucel (hydroxypropylcellulose) (HPC) 107 % of control

CC1=C(C)CC(c2ccccc2)C(C(=O)O)C1 (stereo not drawn)
inactive: dose: 176.0 mg/kg/injection, schedule: Q01DX001 (ip), vehicle: other 100 % of control | dose: 266.0 mg/kg/injection, schedule: Q01DX001 (ip), vehicle: other 100 % of control | dose: 400.0 mg/kg/injection, schedule: Q01DX001 (ip), vehicle: other 101 % of control

Nc1ccn(C2OC(CO)C(O)C2O)c(=NCC(=O)O)n1 (stereo not drawn)
inactive: [7] 120 % of control | [8] 122 % of control

CC1(C(=O)O)NC(C(=O)O)CS1 (stereo not drawn)
inactive: [9] 96 % of control | [10] 108 % of control | [11] 104 % of control | [12] 102 % of control | dose: 80.0 mg/kg/injection, schedule: Q01DX001 (ip), vehicle: saline 98 % of control

Cc1ccc(Cl)c([N+](=O)[O-])c1N
inactive: [1] 92 % of control | [2] 106 % of control | [3] 95 % of control | [4] 104 % of control | [5] 108 % of control | [6] 104 % of control

Oc1ccc(O)c2c1C1c3ccccc3C2c2ccccc21
inactive: [13] 86 % of control | [14] 108 % of control

COc1cc2c(cc1OC)/C(=C\C(=O)N1CCCC1=O)CCC2
inactive: [15] 96 % of control | [16] 104 % of control | [17] 97 % of control | [18] 102 % of control | [19] 94 % of control | [20] 101 % of control

CCCCCCCCCCCCC(=O)N1CCOCC1
inactive: [2] 122 % of control | [4] 107 % of control | [6] 104 % of control

CCN(CC)CCNC(=O)c1cc(N2CCOCC2)ccn1
inactive: [13] 108 % of control | [14] 102 % of control

CCOC(=O)c1c[nH]n2c(=S)ncnc12
inactive: [1] 96 % of control | [2] 98 % of control | [3] 97 % of control | [4] 104 % of control | [6] 102 % of control

Cc1cccc(-c2nnc(-c3cccc(C)n3)o2)n1
inactive: dose: 50.0 mg/kg/injection, schedule: Q04DX002 (ip), vehicle: saline with Tween-80 92 % of control | dose: 100.0 mg/kg/injection, schedule: Q04DX002 (ip), vehicle: saline with Tween-80 95 % of control | dose: 200.0 mg/kg/injection, schedule: Q04DX002 (ip), vehicle: saline with Tween-80 92 % of control | dose: 400.0 mg/kg/injection, schedule: Q04DX002 (ip), vehicle: saline with Tween-80 87 % of control

CC1(C)N=C(N)N=C(N)N1c1cccc(CCCCc2cccc(NC(=O)CBr)c2)c1
inactive: [9] 102 % of control | [10] 98 % of control | [11] 98 % of control | [12] 112 % of control

Nc1ccc(Cl)c(C(=O)O)c1
inactive: [15] 111 % of control | [17] 121 % of control | [19] 105 % of control

Nc1ncnc2c1ncn2C1OC(C(=O)O)C(O)C1O (stereo not drawn)
inactive: [7] 107 % of control | [8] 101 % of control

Nc1nc(Nc2ccc(Cl)c(Cl)c2)cc(=O)[nH]1
inactive: dose: 200.0 mg/kg/injection, schedule: Q01DX Z (ip), vehicle: methylcellulose (MC) 86 % of control

CC1C(=O)C(=O)C(CCc2ccccc2)C1=O (stereo not drawn)
inactive: [2] 97 % of control | [4] 97 % of control | [6] 97 % of control

CN1CCCC(=O)NC1=O
inactive: dose: 100.0 mg/kg/injection, schedule: Q01DX009 (ip), vehicle: saline 96 % of control | dose: 100.0 mg/kg/injection, schedule: Q04DX003 (ip), vehicle: saline 104 % of control | dose: 200.0 mg/kg/injection, schedule: Q01DX009 (ip), vehicle: saline 97 % of control | dose: 200.0 mg/kg/injection, schedule: Q04DX003 (ip), vehicle: saline 98 % of control | dose: 400.0 mg/kg/injection, schedule: Q01DX009 (ip), vehicle: saline 102 % of control | dose: 400.0 mg/kg/injection, schedule: Q04DX003 (ip), vehicle: saline 95 % of control

O=C(O)/C(=C\c1cccc(Br)c1)c1ccccc1
inactive: dose: 75.0 mg/kg/injection, schedule: Q04DX003 (ip), vehicle: Klucel (hydroxypropylcellulose) (HPC) 104 % of control | dose: 100.0 mg/kg/injection, schedule: Q01DX001 (ip), vehicle: Klucel (hydroxypropylcellulose) (HPC) 105 % of control | dose: 150.0 mg/kg/injection, schedule: Q04DX003 (ip), vehicle: Klucel (hydroxypropylcellulose) (HPC) 96 % of control | dose: 200.0 mg/kg/injection, schedule: Q01DX001 (ip), vehicle: Klucel (hydroxypropylcellulose) (HPC) 97 % of control | dose: 300.0 mg/kg/injection, schedule: Q04DX003 (ip), vehicle: Klucel (hydroxypropylcellulose) (HPC) 105 % of control | dose: 400.0 mg/kg/injection, schedule: Q01DX001 (ip), vehicle: Klucel (hydroxypropylcellulose) (HPC) 97 % of control

COc1ccc(N2C(=O)C3C(C2=O)C2(Cl)C(Cl)=C(Cl)C3(Cl)C2(Cl)Cl)c(OC)c1 (stereo not drawn)
inactive: [15] 90 % of control | [16] 101 % of control | [17] 95 % of control | [18] 104 % of control | [19] 93 % of control | [20] 92 % of control

CC1NC(=O)C(NC(=O)c2cnc3ccccc3n2)COC(=O)C(C(C)C)N(C)C(=O)C2CSSCC(C(=O)N(C)C(C(C)C)C(=O)OCC(NC(=O)c3cnc4ccccc4n3)C(=O)NC(C)C(=O)N2C)N(C)C1=O (stereo not drawn) (I: Quinoxaline2carbonyl-SA[NMeC][NMeV] / II: Quinoxaline2carbonyl-SA[NMeC][NMeV]; ester I:1-II:C, I:C-II:1; disulfide I:3-II:3; configuration not given here)
inactive: dose: 12.5 micrograms/kg/injection, schedule: Q01DX009 (ip), vehicle: other 106 % of control | dose: 25.0 micrograms/kg/injection, schedule: Q01DX009 (ip), vehicle: other 116 % of control | dose: 50.0 micrograms/kg/injection, schedule: Q01DX009 (ip), vehicle: other 119 % of control | dose: 100.0 micrograms/kg/injection, schedule: Q01DX009 (ip), vehicle: other 122 % of control

N#CC(C#N)=C1CCCc2sccc21
inactive: [13] 90 % of control | [14] 95 % of control | dose: 400.0 mg/kg/injection, schedule: Q01DX001 (ip), vehicle: saline 92 % of control

CN(C)/C=N/NC(=O)C(O)c1ccccc1 (stereo not drawn)
inactive: [2] 116 % of control | [4] 103 % of control | [6] 111 % of control

COc1cc(-c2ccc(N)c(OC)c2)ccc1N
inactive: dose: 62.5 mg/kg/injection, schedule: Q01DX Z (ip), vehicle: saline 90 % of control | dose: 222.0 mg/kg/injection, schedule: Q01DX Z (ip), vehicle: methylcellulose (MC) 108 % of control | dose: 333.0 mg/kg/injection, schedule: Q01DX Z (ip), vehicle: methylcellulose (MC) 90 % of control
